According to patent EP1369415A1, “Substituted pyrrolyl compounds for the treatment of inflammation” (G.D. SEARLE & CO., priority 1996, dated 1998):

How the values were obtained:
[1] = Analgesia (Table I; method not described); assay type: in vivo; details: @ 30mg/kg body weight
carrageenan foot edema = test: Rat Carrageenan Foot Pad Edema Test; assay type: in vivo, Male Sprague-Dawley rats; details: @ 30mg/kg body weight; dosed orally one hour before carrageenan; foot volume three hours after injection
COX-1 = COX-1 (Homo sapiens, UniProt P23219); assay type: biochemical, human or murine
Chain of COX-1 (P23219 24-599): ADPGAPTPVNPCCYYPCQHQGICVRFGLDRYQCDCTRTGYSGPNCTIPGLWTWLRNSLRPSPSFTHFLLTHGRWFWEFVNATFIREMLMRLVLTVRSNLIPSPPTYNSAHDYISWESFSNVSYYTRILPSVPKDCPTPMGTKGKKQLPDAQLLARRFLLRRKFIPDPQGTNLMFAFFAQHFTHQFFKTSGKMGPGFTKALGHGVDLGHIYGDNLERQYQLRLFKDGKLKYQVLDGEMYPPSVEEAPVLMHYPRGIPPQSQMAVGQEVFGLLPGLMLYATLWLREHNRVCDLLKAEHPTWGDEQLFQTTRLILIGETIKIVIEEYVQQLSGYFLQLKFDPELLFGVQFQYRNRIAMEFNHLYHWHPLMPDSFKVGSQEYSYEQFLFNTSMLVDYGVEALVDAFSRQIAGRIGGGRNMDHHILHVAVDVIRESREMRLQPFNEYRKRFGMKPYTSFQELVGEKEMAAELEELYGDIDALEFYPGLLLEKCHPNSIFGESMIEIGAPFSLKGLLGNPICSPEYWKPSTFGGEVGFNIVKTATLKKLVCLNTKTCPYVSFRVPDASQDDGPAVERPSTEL

Compound	ANALGESIA % Inhibition [1] [%]	RAT PAW EDEMA % Inhibition (carrageenan foot edema) [%]	IC50 (COX-1) [µM]
CS(=O)(=O)c1ccc(-n2cccc2-c2ccc(F)cc2)cc1 [Example 8, 2-(4-Fluorophenyl)-1-[4-(methylsulfonyl)phenyl]-1H-pyrrole]	47	56	
NS(=O)(=O)c1ccc(-n2cccc2-c2ccc(F)cc2)cc1 [Example 9, 4-[2-(4-Fluorophenyl)-1H-pyrrol-1-yl]benzenesulfonamide]			10.4
